In patent US10466253B2, “Molecular flux rates through critical pathways measured by stable isotope labeling in vivo, as biomarkers of drug action and disease activity” (The Regents of the University of California, priority 2004, dated 2019):
“Also recorded” adds a separate entry of the source. Where two headings read alike, the source gives them in different places.

Legend:
liver cells = experiment: Liver cell proliferation under carbon tetrachloride treatment (2H2O labeling); format: in vivo, Swiss Webster mice; conditions: IP injections over 7 days, increasing doses, concurrent 2H2O
Description: FIG. 13 depicts in vivo dose response of liver cell proliferation over 7 days of carbon tetrachloride treatment. Swiss Webster mice were given IP injections of CCl4 over 7 days concurrent with ^2H2O.
Mice are given CCl4 i.p. twice weekly for up to 4 weeks, and continuous oral ^2H2O is given throughout, following an i.p. bolus of ^2H2O. Livers are perfused in situ with saline to minimize blood cell contamination. Livers are homogenized and DNA from 5-mg aliquots is analyzed for ^2H incorporation by gas chromatography/mass spectrometry analysis, after isolation and hydrolysis of genomic DNA, as described in Example 1, supra. Livers are collected 4 days after the last dose of CCl4. The cell proliferation rate can then be calculated from the enrichment in the DNA of the target cell compared to measured body water enrichment or to a reference cell type which is fully replaced.
DNA is extracted from a liver sample, either by biopsy or liver homogenate. Liver cell proliferation can be determined on a sample a small as 2 mg (400,000 cells). The use of total liver, rather than isolated hepatocytes, allows for efficient scale-up and the sample processing can be adapted to a 96-well automated system for extremely high throughput. Total liver cell proliferation will be compared to the measured proliferation of isolated hepatocytes, and non-parenchymal cells for validation. […]

liver collagen synthesis = experiment: Liver collagen synthesis in CCl4-induced liver fibrosis; conditions: for rate of liver collagen synthesis in CCl4-treated mice: CCl4-induced liver fibrosis
SW 1753 cells = experiment: DNA methylation in cultured tumor cells (2H3-methyl methionine labeling, GC-MS of methylcytosine); format: cell-based; conditions: for inhibition at 0.25 µM: read-out: inhibition of methylation (reduction)
[1] = test system: EMT7 mouse mammary carcinoma cells; experiment: In vivo tumor cell proliferation over 5 days of chemotherapy; design: species or system female balb/C mice; conditions: Gem 125 mg/kg every other day, HU 500 mg/kg daily
bone marrow = experiment: Bone marrow proliferation in tumor-bearing mice over 5 days of chemotherapy; format: in vivo, female balb/C mice; conditions: Gem 125 mg/kg every other day, HU 500 mg/kg daily
[2] = Tolerability of maintained 2H2O body water enrichment; format: in vivo, humans and experimental animals; conditions: 1-10% of total body water labeled, weeks or months; >100 human subjects
Excerpt: Relatively high body water enrichments of ^2H2O (e.g., 1-10% of the total body water is labeled) may be achieved relatively inexpensively using the techniques of the invention. […] This finding in a large number of human subjects (>100 people) is contrary to previous concerns about vestibular toxicities at high doses of ^2H2O. The Applicant has discovered that as long as rapid changes in body water enrichment are prevented (e.g., by initial administration in small, divided doses), high body water enrichments of ^2H2O can be maintained with no toxicities. For example, the low expense of commercially available ^2H2O allows long-term maintenance of enrichments in the 1-5% range at relatively low expense (e.g., calculations reveal a lower cost for 2 months labeling at 2% ^2H2O enrichment, and thus 7-8% enrichment in the alanine precursor pool, than for 12 hours labeling of ^2H-leucine at 10% free leucine enrichment, and thus 7-8% enrichment in leucine precursor pool for that period).

[3] = test system: hippocampal neuroprogenitor cells; experiment: Hippocampal neuroprogenitor cell proliferation (2H2O labeling of DNA, GC/MS); format: in vivo, male 129SvEv mice
Description: FIG. 7 depicts the effects of chronic imipramine treatment on hippocampal neuroprogenitor cell proliferation in male 129SvEv mice. […] Mice received 3 weeks of treatment with imipramine (20 mg/kg/day) in drinking water and were labeled with 10% ^2H2O during the last 3 days of treatment. Data represent mean±SD, n=4 per group.
FIG. 8 depicts the effects of chronic fluoxetine treatment on hippocampal neuroprogenitor cell proliferation in male 129SvEv mice. […] Mice received 2 weeks of treatment with fluoxetine (10 mg/kg/day) in drinking water and were labeled with 10% ^2H2O during the last week of treatment.
DNA is then isolated from the tissue or cell of interest using a Qiagen kit (Qiagen, Valencia, Calif.), following the manufacturer's protocol. Isolated DNA, eluted in water, is adjusted to pH 9-10 and hydrolyzed enzymatically; deoxyribose is released selectively from purine (dA/dG) deoxynucleotides and converted to the pentane tetraacetate derivative. Alternatively, a pentafluorobenzyl derivative is prepared by reaction with excess pentafluorobenzyl hydroxylamine under acidic conditions, followed by acetylation with acetic anhydride. Either type of derivative is subsequently extracted with an organic solvent, dried with sodium sulfate, and analyzed by GC/MS as described, supra. […]

[4] = test system: bone marrow cells (total, lymphoid, myeloid, other); experiment: Bone marrow cell subset proliferation after hydroxyurea (myelosuppression)
mature neurons = experiment: Proliferation of mature neurons (neurogenesis; flow cytometry isolated neurons); format: in vivo; conditions: imipramine-treated vs normal adult mice
Excerpt: FIG. 27 depicts the proliferation of mature neurons in normal and antidepressant (imipramine)-treated adult mice. Neurons were isolated by flow cytometry and analyzed as described in Example 2, infra.
Animals are sacrificed, brain is removed and the hippocampus is dissected out. […] Different durations of label administration can be used to differentiate between the kinetics of rapidly proliferating cells, such as the progenitor cell population, compared to the slower rate of label incorporation in neuronal cells. In order to assess neurogenesis directly, ^2H2O-labeled […] are sacrificed, the brain is removed, the hippocampus is dissected out and cut into 0.5 mm slices followed by digestion/dissociation with papain and trypsin. The isolated cells are stained for neuronal markers and sorted by flow cytometry. DNA is isolated and labeling is measured as described, supra.

[5] = test system: endothelial cells from xenograft tumors; experiment: Tumor endothelial cell proliferation in xenograft tumors (angiogenesis); format: in vivo, Balb/c Nu-/Nu- mice; conditions: two weeks drug treatment; vs vehicle (saline)/untreated group
Description: FIG. 18 depicts proliferation of endothelial cells from xenograft tumors in mice treated with an anti-angiogenic drug (Avastin) or a vehicle (saline). Endothelial cell proliferation is suppressed in animals treated with the drug.
The kinetics of angiogenesis are measured in liver and tumor xenografts. Balb/c Nu−/Nu− mice are transplanted with human breast tumor cells. After labeling with ^2H2O, individual animals are sacrificed, and both tumor tissue and liver tissue are harvested from the same animal. The tissue is then digested with collagenase (1 mg/mL) into a single cell suspension. Endothelial cells are enriched by Percoll gradient centrifugation, followed by FACS (sorting on isolection and CD31 positive cells). The proliferation rate of tumor endothelial cells, as well as liver endothelial cells is then measured by purifying, processing, derivatizing, and analyzing the DNA from the isolated endothelial cells, as described in example 2, supra.

microglia = experiment: Microglial proliferation assay of neuroinflammation (2H2O labeling, FACS-isolated microglia); format: in vivo, mice; conditions: LPS i.p. (1 and 4 mg/kg every other day in FIG. 14); vs control; p<0.05 / p<0.01 ANOVA/Tukey
Description: FIG. 14 depicts microglial response to the neuroinflammatory toxin lipopolysacharride (LPS). LPS is administered every other day to mice intraperitoneally at the two doses indicated (1 and 4 mg/kg body weight). ^2H2O was administered concurrently. Some animals were harvested at each of the indicated time points, and microglia were isolated and analyzed for deuterium incorporation. […] Error bars indicate standard deviation.
FIG. 15 depicts the effects of two anti-inflammatory chemotherapeutic agents (dexamethasone and minocycline) on microglial proliferation. Mice were given ^2H2O and either intraperitoneal lipopolysaccharide (LPS) to induce neuroinflammation, or a vehicle (control). Mice given LPS were treated with either a vehicle or dexamethasone or minocycline. Microglia were then isolated and analyzed for deuterium incorporation as described herein.
Mice are labeled with ^2H2O for an appropriate period. Mice are anesthetized and perfused with 10 mL ice cold PBS (trans-cardiac perfusion). Brains are immediately harvested and placed on ice in cold PBS. […]
The resulting cells are stained with the macrophage specific markers F4/80 and CD11b, fixed in 4% paraformaldehyde (PFA), and then isolated by FACS. […] DNA is extracted from sorted cells, hydrolyzed, derivatized, and analyzed by GC/MS as described in Example 2, supra. […]

cerebral cortical tissue = experiment: Cerebral cortical tissue/cell turnover (2H2O labeling of cortical DNA); conditions: high dose of LPS
[6] = single dose 500 mg/kg i.p., 8% 2H2O for subsequent 24 hours, vs vehicle

**Q.** What does the source list for `ClC(Cl)(Cl)Cl` [CCl4, carbon tetrachloride]?
**A.** total liver cell turnover (proliferation of liver cells) (liver cells): increased proliferation of liver cells; collagen synthesis in mouse liver (liver collagen synthesis; fibrotic agent alone): increases collagen synthesis

**Q.** Which inhibition at 0.25 µM (SW 1753 cells) does the source give for `Nc1ncn([C@H]2C[C@H](O)[C@@H](CO)O2)c(=O)n1` [Decitabine, decitabine] here?
**A.** 70%

**Q.** Which tumor cell proliferation [1] does the source give for `Nc1ccn([C@@H]2O[C@H](CO)[C@@H](O)C2(F)F)c(=O)n1` [Gem, gemcitabine] here?
**A.** suppressed

**Q.** And the tumor cell proliferation ([1]; listed as gemcitabine)?
**A.** reduced

**Q.** What about the bone marrow proliferation (bone marrow) of the same molecule?
**A.** suppressed

**Q.** Which “toxicity of maintained body water enrichment” value [2] does the source give for `[2H]O[2H]` [^2H2O] here?
**A.** without any evidence of toxicity

**Q.** Which inhibition at 0.25 µM (SW 1753 cells; 250 nM, SW 1753 cells, DMEM 10% FBS with 2H3-methyl methionine) does the source give for `Nc1ncn([C@@H]2O[C@H](CO)[C@@H](O)[C@H]2O)c(=O)n1` [azacytidine, azacitidine] here?
**A.** < 10%

**Q.** What about the “fraction of methylcytosine that is new” value (SW 1753 cells; 24-hour labeling period, 125, 250, 500 nM) of the same molecule?
**A.** suppressed

**Q.** With `CNCCC(Oc1ccc(C(F)(F)F)cc1)c1ccccc1` (stereo not shown) [fluoxetine] as the molecule, how does the “hippocampal neuroprogenitor cell proliferation” value ([3]; fluoxetine 10 mg/kg/day in drinking water, 2 weeks, 10% 2H2O during last week, p<0.05 vs vehicle) read?
**A.** increases progenitor cell proliferation; also recorded: significant increase

**Q.** For `NC(=O)NO` [hydroxyurea], which tumor cell proliferation [1] is on record?
**A.** reduced

**Q.** What about the tumor cell proliferation ([1]; listed as HU) of the same molecule?
**A.** suppressed

**Q.** What about the bone marrow proliferation (bone marrow) of the same molecule?
**A.** suppressed

**Q.** And the “bone marrow proliferation across subsets (TBM, lymphoid, myeloid, other)” value ([4]; in three cases (indicated by **))?
**A.** suppressed bone marrow proliferation

**Q.** What about the “proliferation of lymphoid bone marrow cells” value [4, 6] of the same molecule?
**A.** statistically significant suppressive effect

**Q.** And the “proliferation of other bone marrow cells” value [4, 6]?
**A.** statistically significant suppressive effect

**Q.** What about the “proliferation of total bone marrow (TBM)” value [4, 6] of the same molecule?
**A.** statistically significant suppressive effect

**Q.** What does the source list for `CN(C)CCCN1c2ccccc2CCc2ccccc21` [imipramine]?
**A.** hippocampal neuroprogenitor cell proliferation ([3]; imipramine 20 mg/kg/day in drinking water, 3 weeks, 10% 2H2O during last 3 days, vs vehicle): increases progenitor cell proliferation; also recorded: significant increase; rate of mature neuron formation (mature neurons): increased formation of mature neurons; rate of mature neuron formation (mature neurons; listed as Imipramine): increased the rate of mature neuron formation

**Q.** With “Avastin: Avastin (Genentech, CA), a known anti-angiogenesis drug” as the molecule, how does the “tumor endothelial cell proliferation rate” value [5] read?
**A.** suppressed; also recorded: significantly lower proliferation rate

**Q.** With lipopolysaccharide [LPS] as the molecule, how does the microglial proliferation (microglia) read?
**A.** increased proliferative response; also recorded: increased proliferation; also recorded: statistically significant and dose-dependent increase

**Q.** What about the cortical tissue turnover (cerebral cortical tissue) of the same molecule?
**A.** affected cortical tissue turnover; also recorded: increased cortical cell turnover

B1: Interferon-gamma: anti-fibrotic agent (protein, UniProt P01579 24-161, looked up)
Interferon gamma: QDPYVKEAENLKKYFNAGHSDVADNGTLFLGILKNWKEESDRKIMQSQIVSFYFKLFKNFKDDQSIQKSVETIKEDMNVKFFNSNKKKRDDFEKLTNYSVTDLNVQRKAIHELIQVMAELSPAAKTGKRKRSQMLFRG
**Q.** What does the source list for B1?
**A.** rate of liver collagen synthesis in CCl4-treated mice (liver collagen synthesis): reduce the rate of collagen synthesis; rate of liver collagen synthesis in CCl4-treated mice (liver collagen synthesis; listed as interferon-gamma): suppressed
